Patent US20160038468A1 (priority 2013, published 2016)
Converted amounts (≈) assume the structure as drawn. Where two headings read alike, the source gives them in different places.

Columns and labels:
Type in all cases: cell-based
Prevotella amnii = assay: Agar dilution MIC (CLSI), Prevotella amnii vaginal isolates; details: for Number of strains with indicated MIC: 33 samples; for MIC: read-out: Minimal Inhibitory Concentration (MIC)
Gardnerella vaginalis = assay: Agar dilution MIC (CLSI), Gardnerella vaginalis vaginal isolates; details: for Number of strains with indicated MIC: 100 samples
Prevotella timonensis = assay: Agar dilution MIC (CLSI), Prevotella timonensis vaginal isolates; details: for MIC: read-out: Minimal Inhibitory Concentration (MIC); for Number of strains with indicated MIC: 33 samples
[1] = Gardnerella vaginalis, # tested 107
[2] = Hoylesella timonensis, # tested 33

CCC[C@@H]1C[C@@H](C(=O)N[C@@H]([C@H]2O[C@H](SC)[C@H](O)[C@@H](O)[C@H]2O)[C@H](C)Cl)N(C)C1 [Clindamycin]
MIC Range (Prevotella amnii; # tested 33): 0.03 to 128 µg/mL | Number of strains with indicated MIC (Prevotella amnii; MIC 0.03 μg/ml): 32 | Number of strains with indicated MIC (Prevotella amnii; MIC […]): 1 | MIC (Prevotella amnii; Prevotella amnii, isolate 601203 4): 0.03 µg/mL (≈ 0.0706 µM) | MIC (Prevotella amnii; Prevotella amnii, isolate 601256 11): 0.03 µg/mL (≈ 0.0706 µM) | MIC (Prevotella amnii; Prevotella amnii, isolate 601258 25): 0.03 µg/mL (≈ 0.0706 µM) | MIC (Prevotella amnii; Prevotella amnii, isolate 601261 E): 0.03 µg/mL (≈ 0.0706 µM) | MIC (Prevotella amnii; Prevotella amnii, isolate 601266 20): 0.03 µg/mL (≈ 0.0706 µM) | MIC (Prevotella amnii; Prevotella amnii, isolate 601278 10): 0.03 µg/mL (≈ 0.0706 µM) | MIC (Prevotella amnii; Prevotella amnii, isolate 601287 HH): 0.03 µg/mL (≈ 0.0706 µM) | MIC (Prevotella amnii; Prevotella amnii, isolate 601291 41): 0.03 µg/mL (≈ 0.0706 µM) | MIC (Prevotella amnii; Prevotella amnii, isolate 601293 29): 0.03 µg/mL (≈ 0.0706 µM) | MIC (Prevotella amnii; Prevotella amnii, isolate 601305 A): 0.03 µg/mL (≈ 0.0706 µM) | MIC (Prevotella amnii; Prevotella amnii, isolate 601311 K): 0.03 µg/mL (≈ 0.0706 µM) | MIC (Prevotella amnii; Prevotella amnii, isolate 601314 19): 0.03 µg/mL (≈ 0.0706 µM) | MIC (Prevotella amnii; Prevotella amnii, isolate 601318 G): 0.03 µg/mL (≈ 0.0706 µM) | MIC (Prevotella amnii; Prevotella amnii, isolate 601336 33): 0.03 µg/mL (≈ 0.0706 µM) | MIC (Prevotella amnii; Prevotella amnii, isolate 601340 37): 128 µg/mL (≈ 301 µM) | MIC (Prevotella amnii; Prevotella amnii, isolate 601341 H): 0.03 µg/mL (≈ 0.0706 µM) | MIC (Prevotella amnii; Prevotella amnii, isolate 601350 A): 0.03 µg/mL (≈ 0.0706 µM) | MIC (Prevotella amnii; Prevotella amnii, isolate 601365 6): 0.03 µg/mL (≈ 0.0706 µM) | MIC (Prevotella amnii; Prevotella amnii, isolate 601368 24): 0.03 µg/mL (≈ 0.0706 µM) | MIC (Prevotella amnii; Prevotella amnii, isolate 601369 13): 0.03 µg/mL (≈ 0.0706 µM) | MIC (Prevotella amnii; Prevotella amnii, isolate 601375 L): 0.03 µg/mL (≈ 0.0706 µM) | MIC (Prevotella amnii; Prevotella amnii, isolate 601377 9): 0.03 µg/mL (≈ 0.0706 µM) | MIC (Prevotella amnii; Prevotella amnii, isolate 601379 24): 0.03 µg/mL (≈ 0.0706 µM) | MIC (Prevotella amnii; Prevotella amnii, isolate 601388 G): 0.03 µg/mL (≈ 0.0706 µM) | MIC (Prevotella amnii; Prevotella amnii, isolate 601399 10): 0.03 µg/mL (≈ 0.0706 µM) | MIC (Prevotella amnii; Prevotella amnii, isolate 601405 A): 0.03 µg/mL (≈ 0.0706 µM) | MIC (Prevotella amnii; Prevotella amnii, isolate 601411 L): 0.03 µg/mL (≈ 0.0706 µM) | MIC (Prevotella amnii; Prevotella amnii, isolate 601413 10): 0.03 µg/mL (≈ 0.0706 µM) | MIC (Prevotella amnii; Prevotella amnii, isolate 601418 27): 0.03 µg/mL (≈ 0.0706 µM) | MIC (Prevotella amnii; Prevotella amnii, isolate 601426 A): 0.03 µg/mL (≈ 0.0706 µM) | MIC (Prevotella amnii; Prevotella amnii, isolate 601430 14): 0.03 µg/mL (≈ 0.0706 µM) | MIC (Prevotella amnii; Prevotella amnii, isolate 601434 13): 0.03 µg/mL (≈ 0.0706 µM) | MIC (Prevotella amnii; Prevotella amnii, isolate 601458 13): 0.03 µg/mL (≈ 0.0706 µM) | MIC50 (Prevotella amnii; Prevotella amnii, # tested 33): 0.03 µg/mL (≈ 0.0706 µM) | MIC90 (Prevotella amnii; Prevotella amnii, # tested 33): 0.03 µg/mL (≈ 0.0706 µM) | Susceptible (Prevotella amnii; number (%) of isolates, # tested 33): 32 (97) μg/ml | Resistant (Prevotella amnii; number (%) of isolates, # tested 33, resistance: rifaximin >32, metronidazole >32, clindamycin >8 μg/ml): 1 (3) μg/ml | MIC Range (Gardnerella vaginalis; # tested 107): 0.015 to 0.5 µg/mL | MIC50 (Gardnerella vaginalis; [1]): 0.125 µg/mL (≈ 0.294 µM) | MIC90 (Gardnerella vaginalis; [1]): 0.25 µg/mL (≈ 0.588 µM) | Number of strains with indicated MIC (Gardnerella vaginalis; MIC 0.015 μg/ml): 1 | Number of strains with indicated MIC (Gardnerella vaginalis; MIC 0.03 μg/ml): 11 | Number of strains with indicated MIC (Gardnerella vaginalis; MIC 0.06 μg/ml): 25 | Number of strains with indicated MIC (Gardnerella vaginalis; MIC […] μg/ml): 1 | MIC (Prevotella timonensis; Hoylesella timonensis, isolate 601080 5): 0.03 µg/mL (≈ 0.0706 µM) | MIC (Prevotella timonensis; Hoylesella timonensis, isolate 601088 15): 0.03 µg/mL (≈ 0.0706 µM) | MIC (Prevotella timonensis; Hoylesella timonensis, isolate 601093 24): 0.03 µg/mL (≈ 0.0706 µM) | MIC (Prevotella timonensis; Hoylesella timonensis, isolate 601097 S): 0.03 µg/mL (≈ 0.0706 µM) | MIC (Prevotella timonensis; Hoylesella timonensis, isolate 601098 B): 0.03 µg/mL (≈ 0.0706 µM) | MIC (Prevotella timonensis; Hoylesella timonensis, isolate 601167 13): 0.06 µg/mL (≈ 0.141 µM) | MIC (Prevotella timonensis; Hoylesella timonensis, isolate 601170 13): 0.03 µg/mL (≈ 0.0706 µM) | MIC (Prevotella timonensis; Hoylesella timonensis, isolate 601178 19): 0.03 µg/mL (≈ 0.0706 µM) | MIC (Prevotella timonensis; Hoylesella timonensis, isolate 601194 9B): 0.03 µg/mL (≈ 0.0706 µM) | MIC (Prevotella timonensis; Hoylesella timonensis, isolate 601245 16): 0.03 µg/mL (≈ 0.0706 µM) | MIC (Prevotella timonensis; Hoylesella timonensis, isolate 601252 B): 0.03 µg/mL (≈ 0.0706 µM) | MIC (Prevotella timonensis; Hoylesella timonensis, isolate 601255 17): 0.03 µg/mL (≈ 0.0706 µM) | MIC (Prevotella timonensis; Hoylesella timonensis, isolate 601266 18): 0.03 µg/mL (≈ 0.0706 µM) | MIC (Prevotella timonensis; Hoylesella timonensis, isolate 601278 12): 0.06 µg/mL (≈ 0.141 µM) | MIC (Prevotella timonensis; Hoylesella timonensis, isolate 601281 22): 0.03 µg/mL (≈ 0.0706 µM) | MIC (Prevotella timonensis; Hoylesella timonensis, isolate 601287 H): 0.03 µg/mL (≈ 0.0706 µM) | MIC (Prevotella timonensis; Hoylesella timonensis, isolate 601311 B): 0.03 µg/mL (≈ 0.0706 µM) | MIC (Prevotella timonensis; Hoylesella timonensis, isolate 601388 S): 0.03 µg/mL (≈ 0.0706 µM) | MIC (Prevotella timonensis; Hoylesella timonensis, isolate 601429 11): 128 µg/mL (≈ 301 µM) | MIC (Prevotella timonensis; Hoylesella timonensis, isolate 601459 21): 0.03 µg/mL (≈ 0.0706 µM) | MIC (Prevotella timonensis; Hoylesella timonensis): > 128 µg/mL | MIC50 (Prevotella timonensis; [2]): 0.03 µg/mL (≈ 0.0706 µM) | MIC90 (Prevotella timonensis; [2]): > 128 µg/mL | Number of strains with indicated MIC (Prevotella timonensis; MIC 0.03 μg/ml): 17 | Number of strains with indicated MIC (Prevotella timonensis; MIC 0.06 μg/ml): 2 | Number of strains with indicated MIC (Prevotella timonensis; MIC >[…]): 13 | Number of strains with indicated MIC (Prevotella timonensis; MIC […]): 1
